Test results: US20080051454A1, “Compositions and methods for transient receptor potential vanilloid (TRPV) channel mediated treatments” (The Board of Trustees Operating Michigan State University, priority 2006, published 2008)

Legend:
[1] = system: Wistar rats fed a normal-salt (NS) or high-salt (HS) diet for 10 days; test: MAP and HR responses to i.v. bolus NADA with or without antagonists in conscious rats; assay type: in vivo, rat; settings: for prolonged depressor effect of NADA (decrease in MAP) after antagonist: NADA 4 mg/kg after CAPZ 3 mg/kg, CGRP8-37 infusion or SR141716A 3 mg/kg
Source text: In brief: Wistar rats were fed a normal (NS, 0.4%) or high (HS, 4%) sodium diet for 10 days, then artery and vein were cannulated for measurement of mean arterial pressure (MAP) or for injection of drugs and collection of plasma.
Animal Preparation: Male Wistar rats (7 weeks old, Charles River Laboratory, Wilmington, Mass.) were housed in the animal facility for 1 week before the experiment. Rats were grouped randomly and pair-fed a NS (0.4% of Na^+ by weight) or HS (4% of Na^+ by weight) diet for 10 days. The rat chow was purchased from Harlan Teklad Diets (Madison, Wis.). Drinking water was available ad libitum throughout the experiment. All protocols were in accordance with the National Institutes of Health Guidelines for the Care and Use of Laboratory Animals.
(§1) Surgical Preparation Rats were anesthetized with ketamine and xylazine (80 and 4 mg/kg intraperitoneally, respectively) for cannulation or with urethane (1.5 g/kg intraperitoneally) for capsaicin administration. The left jugular vein, carotid and femoral artery were cannulated under anesthesia for injection of drugs or monitoring of mean arterial pressure (MAP) and heart rate (HR).
Three hours after surgery, baseline MAP and its response to the above-mentioned drugs were obtained with the rats fully awake and unrestrained [Wang et al., Am J Physiol 2004; 287:H1868-H[874]. NADA was injected in increasing doses (1, 4, and 10 mg/kg intravenous bolus) in 3 subgroups of rats (each group for each dose). To determine the role of TRPV1 and CB 1 receptor in NADA-induced hypotension, NADA (4 mg/kg) was injected 10 minutes or 20 minutes after intravenous injection of CAPZ (3 mg/kg) or SR141716A (3 mg/kg), respectively.
To examine the effect of CGRP8-37 on NADA-induced hypotension, CGRP8-37 was intravenously administered at the rate of 1 mg/kg/min for 2 minutes followed by injection at the rate of 0.5 mg/kg/min for 15 minutes. NADA (4 mg/kg) was injected 1 minute after CGRPs-37 administration. The effectiveness of the dose and time frame for CGRP8-37 injection was verified by blockade of the hypotensive response to capsaicin (30 μg/kg) (n=5).

[2] = system: Wistar rats fed a NS or HS diet for 10 days; test: MAP responses to i.v. capsaicin with or without CAPZ in urethane-anesthetized rats; assay type: in vivo, rat
Description: as §1
Each dose of injection was separated by a 30-minute interval. To determine the specificity of capsaicin, CAPZ (3 mg/kg) was administered 10 minutes before capsaicin injection in a separate group.

[3] = system: male Wistar rats; test: Depressor effect of 20-HETE analog DSR given IV, with or without antagonists; assay type: in vivo, rat; settings: DSR 1 mg/kg with CAPZ 3 mg/kg, RP67580 4 mg/kg or CGRP 8-37 3 mg/kg
[4] = system: hearts of WT mice; test: Langendorff perfused heart, ischemia and reperfusion (I/R) with OLDA, wild type; design: species or system mouse; settings: antagonist 1×10^−6 M
Description: The following measurements were made on the two types of heart tissue: left ventricular end-diastolic pressure (LVEDP), left ventricular developed pressure (LVDP), coronary flow (CF), and left ventricular (LV) peak positive rate of pressure change/rate of time change (+dP/dt) were evaluated after I/R.

[5] = system: Wistar rats fed a NS or HS diet for 3 weeks; test: MAP and HR responses to bolus CAPZ in conscious rats (3-week diet); assay type: in vivo, rat; settings: for peak increase in MAP: CAPZ 3 mg/kg bolus, conscious
Source text: Animal Preparation: Experiments were approved by the institutional Animals Care and Use Committee. Male Wistar rats (6 weeks old, Charles River Laboratory, Wilmington, Mass.) were housed in a temperature-controlled room with a 12:12-hour light/dark cycle. Rats were selected randomly to receive either a normal-sodium diet (NS, 0.4% of Na^+ by weight) or a HS diet (HS, 4% of Na^+ by weight) for 3 weeks. The diets were purchased from Harlan Teklad. All rats drank water ad libitum throughout the experiment.
Surgical Preparation The rats were anesthetized with ketamine and xylazine (80 and 4 mg/kg ip, respectively) for implantation of artery and vein catheters. The left jugular vein and carotid artery were cannulated for administration of drugs or for monitoring of mean arterial pressure (MAP) and heart rate (HR) with a Statham 231D pressure transducer coupled to a Gould 2400s recorder (Gould Instruments, Dayton, Ohio, USA). For conscious animal experiments, catheters were routed subcutaneously and exteriorized between the scapulae. Rats were quietly brought to home cages 3 hours after surgery, and MAP and HR were continuously recorded. Regular room light was turned on during experiments. The rats were allowed to acclimate to their surroundings for 15-30 minutes in their cages, i.e., until which time they ceased exploring the new environment and their blood pressures stabilized. Baseline MAP and HR were recorded for 15 minutes before administration of drugs (Supowit et al., 1997; Wang and Wang, 2004).
Protocol 1: To determine whether the TRPV1 is tonically activated during HS intake, rats fed a NS or HS diet were randomly assigned to 2 groups for intravenous injection of CAPZ (3 mg/kg), a selective TRPV1 antagonist, in conscious states.

[6] = system: WT hearts; test: Lactate dehydrogenase (LDH) release during I/R; design: species or system mouse
Description: Lactate dehydrogenase (LDH) release: In addition to the measurement of cardiac function, cardiac injury was assessed by measuring LDH release. Perfusion effluent was collected during the first 10 minutes to 20 minutes of I/R and stored at […] until analyzed. Total LDH levels were determined with the use of a CytoTox 96 assay (Promega). The data were expressed as absorbance units released per milliliter per minute per gram of heart wet tissues (Turnbull et al., Am J Physiol Heart Circ Physiol 290: […]-9, 2006; herein incorporated by reference).

[7] = system: rats fed either a high or normal sodium diet; settings: cited from earlier work

effect on PC protection assessed by LDH levels after I/R in WT hearts [6]: abolished
Structure (SMILES): Oc1cc2c(cc1O)CN(C(=S)NCCc1ccc(Cl)cc1)CCC2 [CAPZ, N-[2-(4-Chlorophenyl)ethyl]-1,3,4,5-tetrahydro-7,8-dihydroxy-2H-2-benzazepine-2-carbothioamide]
effect of antagonist on NADA-induced depressor effect ([1]; NADA 4 mg/kg): abolished | prolonged depressor effect of NADA (decrease in MAP) after antagonist ([1]; HS diet): 7±2 mmHg | prolonged depressor effect of NADA (decrease in MAP) after antagonist ([1]; NS diet): 6±2 mmHg | capsaicin-induced decrease in MAP after CAPZ ([2]; CAPZ 3 mg/kg before capsaicin 10 μg/kg, HS): 4±1 mmHg | capsaicin-induced decrease in MAP after CAPZ ([2]; CAPZ 3 mg/kg before capsaicin 10 μg/kg, NS): 4±1 mmHg | capsaicin-induced decrease in MAP after CAPZ ([2]; CAPZ 3 mg/kg before capsaicin 30 μg/kg, HS): 6±2 mmHg | capsaicin-induced decrease in MAP after CAPZ ([2]; CAPZ 3 mg/kg before capsaicin 30 μg/kg, NS): 5±1 mmHg | DSR induced-depressor effect after antagonist [3]: 8.5±2.5 mmHg | effect on protective effect of OLDA in WT hearts [4]: abolished | peak increase in MAP ([5]; HS 3 weeks): 13±3 mmHg | peak increase in MAP ([5]; NS 3 weeks): 4±2 mmHg | duration of pressor action ([5]; CAPZ 3 mg/kg, HS): 6 to 7 min | time to peak MAP elevation after injection ([5]; CAPZ 3 mg/kg, HS): ≤ 2 min | change in HR ([5]; CAPZ 3 mg/kg, NS or HS): no significant change | effect on capsaicin actions on plasma CGRP and MAP ([7]; rat, in vivo): blocked | pro-hypertensive effects of salt ([7]; rats fed a high salt diet): unmasked
